Measurements reported in patent publication US11629123B2, “Selenopsammaplin A and derivative thereof, preparation method therefor, and composition for preventing and treating cancer, containing same as active ingredients” (priority 2017, dated 2023).
Entries after “also recorded” stand apart in the source; their conditions may differ. Like-named read-outs stand apart in the source and are kept apart here.

Key:
Type in all cases: cell-based
[1] = tested on: colorectal cancer cell line HCT116; test: cells; settings: Homo sapiens
Experimental: (§1) To confirm the in vitro growth inhibitory efficacy of the samples prepared in Examples 1 to 28 against human lung cancer and colorectal cancer cell lines, the experiments were performed as follows by applying the method described in the literature (Lee S K et al ([…]) Chem Biol Interact 115:215-28). A human lung cancer cell line A549 and a colorectal cancer cell line HCT116 were acquired from the American Type Culture Collection (ATCC, Manassas, Va., USA) and used.
(§2) A549, HCT116 cells were subcultured once or twice weekly under conditions of 37° C. and 5% CO2 using Roswell Park Memorial Institute (RPMI) Medium 1640 (RPMI 1640) containing 10% heat-inactivated Fetal Bovine Serum (FBS), 100 units/mL penicillin, 100 μg/mL streptomycin, and 250 ng/mL amphotericin B. All cells were thawed from liquid nitrogen, subcultured three times or more, and then used in the experiment.
(§3) The effects of the compounds obtained in Examples 1 to 28 on cell growth were measured by a sulforhodamine B (SRB) method (Lee et al (1998) Chem Biol Interact 115: 215-28).
(§4) Specifically, the human lung cancer and colon cancer cell lines used in the present invention were subcultured in a RPMI medium containing 10% FBS, 1% PSF, and the like, 10 μl of a sample dissolved in 10% DMSO and 190 μl (5×10^4 cells/ml) of the cell suspension were placed in each well of a 96-well plate. 190 μl of the cell suspension was placed in at least 16 wells, cultured for 30 minutes, and used as a negative control (zero-day control) before the experiment. The cultured cells were fixed with 10% trichloroacetic acid (TCA) and then stained with an SRB solution, the staining solution was dissolved with 10 mM Tris-base, and absorbance was measured at 515 nm. Using the cell culture in 10% DMSO as a control, cell viability according to the treatment with each test sample was measured using the following Equation 1. % Cell viability=(OD(sample)−OD(0-day))/(OD(10% DMSO)−OD(0-day))×100 [Equation 1]
(§5) When the control in which the sample was not treated was defined as 100%, the value of the sample treatment group was shown as a percentage with respect to the control, and each test sample treatment was determined by the mean value±SEM of the duplicate or triplicate test. The IC50 value is the concentration of the test sample for 50% viability.

[2] = tested on: human lung cancer cell line A549; test: cells; settings: Homo sapiens
Experimental: as §1, §2, §3, §4, §5

[3] = tested on: human lung cancer and colorectal cancer cell lines; test: In vitro growth inhibition (SRB), summary over both cell lines; settings: compared with control compound etoposide
Experimental: as §1, §2, §3, §4, §5

[4] = HCT-116, read-out: HCT116-LC50, Table 2, SRB, concentration for 50% viability
[5] = A549, read-out: A549-LC50, Table 2, SRB, concentration for 50% viability

SMILES | CC50 [1, 4] [nM] | CC50 [2, 5] [nM] | cancer cell growth inhibitory activity compared to etoposide [3] | CC50 ([1]; HCT-116, read-out: HCT116-LC50) [nM] | CC50 ([2]; A549, read-out: A549-LC50) [nM]
O=C(NCC[Se][Se]CCNC(=O)/C(Cc1ccc(O)c(Cl)c1)=N/O)/C(Cc1ccc(O)c(Cl)c1)=N/O [SSM-2, (2E,2′E)-N,N′-(diselanediylbis(ethane-2,1-diyl))bis(3-(3-chloro-4-hydroxyphenyl)-2-(hydroxyimino)propanamide)] | 20 | 50 | higher inhibitory activity than a control compound etoposide; also recorded: excellent cancer cell growth inhibitory potential even compared to etoposide |  | 
O=C(NCC[Se][Se]CCNC(=O)/C(Cc1ccc(O)c(F)c1)=N/O)/C(Cc1ccc(O)c(F)c1)=N/O [SSM-3, (2E,2′E)-N,N′-(diselanediylbis(ethane-2,1-diyl))bis(3-(3-fluoro-4-hydroxyphenyl)-2-(hydroxyimino)propanamide)] | 50 | 60 | higher inhibitory activity than a control compound etoposide; also recorded: excellent cancer cell growth inhibitory potential even compared to etoposide |  | 
O=C(NCC[Se][Se]CCNC(=O)/C(Cc1ccccc1)=N/O)/C(Cc1ccccc1)=N/O [SSM-4, (2E,2′E)-N,N′-(diselanediylbis(ethane-2,1-diyl))bis(2-(hydroxyimino)-3-phenylpropanamide)] |  |  | higher inhibitory activity than a control compound etoposide; also recorded: excellent cancer cell growth inhibitory potential even compared to etoposide | 90 | 80
CCOc1ccc(C/C(=N\O)C(=O)NCC[Se][Se]CCNC(=O)/C(Cc2ccc(OCC)cc2)=N/O)cc1 [SSM-10, (2E,2′E)-N,N′-(diselanediylbis(ethane-2,1-diyl))bis(3-(4-ethoxyphenyl)-2-(hydroxyimino)propanamide)] | 70 | 50 | higher inhibitory activity than a control compound etoposide; also recorded: excellent cancer cell growth inhibitory potential even compared to etoposide |  | 
O=C(NCC[Se][Se]CCNC(=O)/C(Cc1ccc([N+](=O)[O-])cc1)=N/O)/C(Cc1ccc([N+](=O)[O-])cc1)=N/O [SSM-12, (2E,2′E)-N,N′-(diselanediylbis(ethane-2,1-diyl))bis(2-(hydroxyimino)-3-(4-nitrophenyl)propanamide)] |  |  | higher inhibitory activity than a control compound etoposide; also recorded: excellent cancer cell growth inhibitory potential even compared to etoposide | 90 | 90
